Experimental data: article PMC7961380, “A Systematic Study of the In Vitro Pharmacokinetics and Estimated Human In Vivo Clearance of Indole and Indazole-3-Carboxamide Synthetic Cannabinoid Receptor Agonists Detected on the Illicit Drug Market” (Molecules, 2021)

Tests used:
[1] = Metabolic stability, pooled human liver microsome incubations; settings: pHLM; vs refs 69 (AB-FUBINACA), 54 (5F-MDMB-PINACA)
[2] = HLM, ref 14 (THJ-018, THJ-2201), 15 (NNEI, MN-18), 106 (NM-2201), 107 (BIM-2201), 108 (STS-135), 16 (AB-PINACA, 5F-AB-PINACA), 54 (5F-MDMB-PINACA), 69 (AB-FUBINACA), 17 (ADB-FUBINACA), 97 (FDU-PB-22, FUB-PB-22), cited from earlier work; for CLint micr / t1/2: 95 (Cumyl-PICA, 5F-Cumyl-PICA), 109 (5F-APP-PICA, 5F-APP-PINACA; for CLint micr: 73 (5F-AMB-PINACA); for t1/2 / CLint: 57 (AMB-4en-PICA); for t1/2: 73 (AMB-PINACA, 5F-AMB-PINACA)
[3] = Chromatographic hydrophobicity index (CHI) log D at pH 7.4; settings: for chromatographic logD: reversed-phase HPLC, Acquity BEH C18 column
Procedure: Chromatographic hydrophobicity index (CHI) log D samples (see below) were analysed using high-performance liquid chromatography (HPLC) with a Shimadzu Nexera X2 HPLC coupled to a Shimadzu SPD-30 MA photodiode array detector (PDA) (Shimadzu, Kyoto, Japan). […] The sample chamber was maintained at 25 °C. Gradient elution was performed, with mobile phase (MP) consisting of ammonium acetate in water (10 mM, pH 7.4) (MP A) and acetonitrile (MP B).
A calibration mix of ten compounds at 10 µg mL^−1 in 1:1 (v/v) water:ACN was used (theophylline, phenyltetrazole, benzimidazole, colchicine, phenyltheophilline, acetophenone, indole, propiophenone, butyrophenone and valerophenone (all Sigma-Aldrich)). Test compounds were prepared at 0.25 mM in 1:1 (v/v) water:ACN. Samples (n = 2 for calibration standards; n = 1 for test compounds) were analysed using UPLC-PDA as described above. Retention times of calibration compounds are used to calculate retention factor (k), which is plotted against literature CHI values for each compound.
Where tr is the retention time of the analyte and t0 is the retention time of an unretained compound
Calculation of chromatographic hydrophobicity index (CHI)
CHI = (𝑘 x slope) − intercept Eqn.4
Where k is the retention factor of the analyte.
Calculation of CHI Log D [1]
Where CHI is the chromatographic hydrophobicity index obtained using Equation 4

[4] = tested on: human hepatocytes (HHeps); settings: HHeps (asterisk); ref 13 (JWH-122, MAM-2201, Cl-, Br-, I-JWH-122), 105 (AM1220); cited from earlier work
[5] = Theoretical fraction unbound for hepatocytes (fuhep) from log D7.4; design: species or system human; settings: calculated from experimental log D7.4 as Kilford et al. (2008), cell volume 3.9 µL/million cells
From the text: For all MDMB- compounds, and for most (S)-AMB-compounds differences in CLint were within 2.5-fold. […] There are multiple factors which can cause intrinsic clearance by HHeps to differ from HLM [89]. Differences may reflect the relative efficiency of transport of SCRAs and their enantiomers through cell membranes in HHeps and the relative abundance of particular enzymes in HLM and HHeps, targeting different sites of metabolism, particularly carboxylesterases. A dominance of non-CYP enzymes in metabolic clearance can result in CLint being faster in HHeps. […] Glucuronidation is therefore unlikely to cause the differences in clearance rates observed. […] CES-1 is one of the most abundant enzymes in human hepatocytes, present in the endoplasmic reticulum and to a lesser extent in the cytosol. Non-specific binding of drugs to microsomes and hepatocytes results in a lower unbound fraction available to interact with enzymes; differences in binding between HLM and HHep incubations may therefore also cause clearance differences. Non-specific binding may be estimated from log P data. Theoretical fraction unbound for microsomes (fumic) and hepatocytes (fuhep) was calculated using experimental pHLM and pHHep concentrations and incubation volumes, and experimental log D7.4 values, as described by Kilford et al. (2008) with hepatocyte cell volume as 3.9 µL/million cells. […]

[6] = in vitro; settings: human, plasma, pH 7.4
[7] = cited from earlier work
[8] = design: method as in PMID 17712819; settings: cited from earlier work

Q: With `CC(C)C(NC(=O)c1nn(Cc2ccc(F)cc2)c2ccccc12)C(N)=O` (stereo not shown) [AB-FUBINACA (8), N-(1-amino-3-methyl-1-oxobutan-2-yl)-1-(4-fluorobenzyl)-1H-indazole-3-carboxamide] as the compound, how does the “CLH prediction lower than literature prediction without PPB” value [1] read?
A: Its value is 20 fold.

Q: What about the “EH prediction lower than literature prediction without PPB” value [1] of the same compound?
A: Its value is 17 fold.

Q: And the CLint micr [2]?
A: Its CLint micr is 11 µL/min/mg.

Q: What about the t1/2 [2] of the same compound?
A: The t1/2 was 62.6 min.

Q: What about the CLint [2] of the same compound?
A: The CLint was 10.5 mL/min/kg.

Q: And the chromatographic logD [3]?
A: The chromatographic logD was 2.81.

Q: With `COC(=O)C(NC(=O)c1nn(CCCCF)c2ccccc12)C(C)(C)C` (stereo not shown) [4F-MDMB-BINACA (4), methyl 2-[1-(4-fluorobutyl)-1H-indazole-3-carboxamido]-3,3-dimethylbutanoate] as the compound, how does the chromatographic logD [3] read?
A: Its chromatographic logD is 4.18.

Q: Which results are given for `CN1CCCCC1Cn1cc(C(=O)c2cccc3ccccc23)c2ccccc21` (stereo not shown) [AM1220]?
A: CLint [4]: 169 mL/min/kg; t1/2 [4]: 3.7 min

Q: Which CLint [4] does the source give for `Cc1ccc(C(=O)c2cn(CCCCCCl)c3ccccc23)c2ccccc12` [Cl-JWH-122] here?
A: The CLint was 502 mL/min/kg.

Q: And the t1/2 [4]?
A: The t1/2 was 2.46 min.

Q: Which results are given for `C=CCCCn1nc(C(=O)NC(C(=O)OC)C(C)(C)C)c2ccccc21` (stereo not shown) [MDMB-4en-PINACA (5), methyl 3,3-dimethyl-2-[1-(pent-4-en-1-yl)-1H-indazole-3-carboxamido] butanoate]?
A: estimated fuhep (theoretical fraction unbound for hepatocytes) [5]: 0.47; chromatographic logD [3]: 4.95

Q: With `Cc1ccc(C(=O)c2cn(CCCCCF)c3ccccc23)c2ccccc12` [MAM-2201] as the compound, how does the CLint [4] read?
A: The CLint was 1408 mL/min/kg.

Q: And the t1/2 [4]?
A: The t1/2 was 0.88 min.

Q: With `C=CCCCn1cc(C(=O)NC(C(=O)OC)C(C)C)c2ccccc21` (stereo not shown) [AMB-4en-PICA (7), methyl 3-methyl-2-[(1-pent-4-enylindole-3-carbonyl)amino] butanoate] as the compound, how does the t1/2 [2] read?
A: Its t1/2 is 2.1 min.

Q: And the CLint [2]?
A: Its CLint is 291 mL/min/kg.

Q: And the chromatographic logD [3]?
A: Its chromatographic logD is 3.97.

Q: Which results are given for `CCCCCn1cc(C(=O)c2ccc(C)c3ccccc23)c2ccccc21` [JWH-122, (4-methyl-1-naphthyl)-(1-pentylindol-3-yl)methanone]?
A: CLint [4]: 1350 mL/min/kg; t1/2 [4]: 0.95 min

Q: For `CCN(CC)CCOC(=O)c1ccc(N)cc1` [Procaine], which half-life [6] is on record?
A: The half-life was 6.5 min.

Q: What about the remaining at 3 h [6] of the same compound?
A: The remaining at 3 h was 0.03 ± 0.02%.

Q: And the remaining at 5 h [6]?
A: The remaining at 5 h was 0.08%.

Q: With `COC(=O)[C@@H](NC(=O)c1nn(Cc2ccc(F)cc2)c2ccccc12)C(C)C` [AMB-FUBINACA (1), methyl [1-(4-fluorobenzyl)-1H-indazole-3-carbonyl]valinate] as the compound, how does the chromatographic logD [3] read?
A: The chromatographic logD was 4.28.

Q: Which “log P” value [7] does the source give for `CCCCCn1cc(C(=O)c2ccc(CC)c3ccccc23)c2ccccc21` [JWH-210, 4-ethylnaphthalen-1-yl-(1-pentylindol-3-yl)methanone] here?
A: The value was 7.5.

Q: Which chromatographic logD [3] does the source give for `C=CCCCn1cc(C(=O)NC(C(=O)OC)C(C)(C)C)c2ccccc21` (stereo not shown) [MDMB-4en-PICA (12), methyl 3,3-dimethyl-2-[1-(pent-4-en-1-yl)-1H-indole-3-carboxamido]butanoate] here?
A: The chromatographic logD was 4.4.

Q: With `COC(=O)C(NC(=O)c1nn(CCCCCF)c2ccccc12)C(C)(C)C` (stereo not shown) [5F-MDMB-PINACA (2), methyl 2-[1-(5-fluoropentyl)-1H-indazole-3-carboxamido]-3,3-dimethylbutanoate] as the compound, how does the “CLH prediction lower than literature prediction without PPB” value [1] read?
A: The value was 4 fold.

Q: What about the “EH prediction lower than literature prediction without PPB” value [1] of the same compound?
A: Its value is 4 fold.

Q: And the CLint micr [2]?
A: The CLint micr was 271 µL/min/mg.

Q: What about the t1/2 [2] of the same compound?
A: The t1/2 was 3.1 min.

Q: What about the CLint [2] of the same compound?
A: Its CLint is 256.2 mL/min/kg.

Q: And the chromatographic logD [3]?
A: The chromatographic logD was 4.5.

Q: Which CLint [4] does the source give for `Cc1ccc(C(=O)c2cn(CCCCCBr)c3ccccc23)c2ccccc12` [Br-JWH-122] here?
A: The CLint was 497 mL/min/kg.

Q: What about the t1/2 [4] of the same compound?
A: Its t1/2 is 2.49 min.

Q: With `CCCCCc1cc(O)c2c(c1)OC(C)(C)[C@@H]1CCC(C)=C[C@@H]21` [THC, Δ9-tetrahydrocannabinol] as the compound, how does the protein-bound in plasma [8] read?
A: The protein-bound in plasma was 95–99%.

Q: And the “log P” value [7]?
A: The value was 6.7.

Q: Which “Experimental Log D7.4” value ([3]; CHI log D, determined for the (S)-enantiomer, n = 1) does the source give for “methyl 2-[1-(5-fluoropentyl)-1H-indazole-3-carboxamido]-3,3-dimethylbutanoate [MDMB-FUBINACA (6)]” here?
A: Its value is 4.69.

Q: With `CC(C)C(NC(=O)c1nn(CC2CCCCC2)c2ccccc12)C(N)=O` (stereo not shown) [AB-[…] (11), N-[1-amino-3-methyl-1-oxobutan-2-yl]-1-(cyclohexylmethyl)-1H-indazole-3-carboxamide] as the compound, how does the chromatographic logD [3] read?
A: The chromatographic logD was 3.71.

Q: With `COC(=O)[C@@H](NC(=O)c1nn(CCCCCF)c2ccccc12)C(C)C` [5F-AMB-PINACA (10), methyl [1-(5-fluoropentyl)-1H-indazole-3-carbonyl]valinate] as the compound, how does the CLint micr [2] read?
A: Its CLint micr is 670 µL/min/mg.

Q: What about the t1/2 [2] of the same compound?
A: The t1/2 was 1.0 min.

Q: And the chromatographic logD [3]?
A: Its chromatographic logD is 4.07.

Q: Which CLint [4] does the source give for `Cc1ccc(C(=O)c2cn(CCCCCI)c3ccccc23)c2ccccc12` [I-JWH-122, (1-(5-iodopentyl)-1H-indol-3-yl)(4-methylnaphthalen-1-yl)methanone] here?
A: The CLint was 235 mL/min/kg.

Q: What about the t1/2 [4] of the same compound?
A: Its t1/2 is 5.26 min.
